Reference: patent publication US20260191965A1 (priority 2022, published 2026)

How the values were obtained:
[1] = system: clinical isolates of Mycobacterium tuberculosis; assay: microbe, parasite or virus in culture; type: cell-based
[2] = system: Mycobacterium tuberculosis H37Rv (ATCC 27294); type: cell-based

SMILES | MIC range against tuberculosis strains resistant to rifampicin and metronidazole [1] | effect on growth of rifamycin-sensitive and rifamycin-resistant tuberculosis strains under anaerobic conditions [2]
CO[C@H]1/C=C/O[C@@]2(C)Oc3c(C)c(O)c4c(c3C2=O)C2=NC3(CCN(CCn5c([N+](=O)[O-])cnc5C)CC3)NC2=C(NC(=O)/C(C)=C\C=C\[C@H](C)[C@H](O)[C@@H](C)[C@@H](O)[C@@H](C)[C@H](OC(C)=O)[C@@H]1C)C4=O | 0.5 to 2 µg/mL | –
Cc1ncc([N+](=O)[O-])n1CCO [Metronidazole, metronidazole] | – | a certain inhibitory effect
